Reference: US10022453B2 (BAYER PHARMA AKTIENGESELLSCHAFT, priority 2013, dated 2018)
Values belong to the compound of their own block, whether it stands above or below them.

Assays:
NCI-H292 = assay: Cytotoxic effects, MTT assay; assay type: cell-based; details: Homo sapiens, 72 h incubation
Description: The cells are cultivated by a standard method, as indicated in the […] (ATCC) for the respective cell lines.
At the end of the selected incubation time, the MTT reagent is incubated with the cells for 4 h, followed by lysis of the cells overnight by addition of the detergent. […] The proliferation of cells which were not treated with test substance but were otherwise identically treated was defined as the 100% figure.

[1] = Cell permeability, flux assay using Caco-2 cells; details: human, Caco-2
Description: C-3 In Vitro Tests for Determining Cell Permeability
The cell permeability of a substance can be investigated by means of in vitro testing in a flux assay using Caco-2 cells [M. D. Troutman and D. R. Thakker, Pharm. […] For this purpose, the cells were cultured for 15-16 days on 24-well filter plates. For the determination of permeation, the respective working example was applied in a HEPES buffer to the cells either apically (A) or basally (B) and incubated for 2 hours. After 0 hours and after 2 hours, samples were taken from the cis and trans compartments. The samples were separated by HPLC (Agilent 1200, Böblingen, Germany) using reverse phase columns.
Of critical importance for toxophores which are released intracellularly is the permeability from B to A [Papp(B-A)] and the ratio of Papp(B-A) to Papp(A-B) (efflux ratio): the lower this permeability, the slower the active and passive transport processes of the substance through the monolayer of Caco-2 cells.

[2] = target: T1, human kinesin spindle protein KSP/Eg5 (Homo sapiens, UniProt P52732); assay: Inhibition of the kinesin spindle protein KSP/Eg5 (ATPase, malachite green); assay type: biochemical; details: 10 nM KSP motor domain, 500 μM ATP, 2 h RT
T1 construct: The motor domain of the human kinesin spindle protein KSP/Eg5; purchased tebu-bio/Cytoskeleton Inc 027EG01-XL
T1 sequence (P52732 18-359 limits assumed): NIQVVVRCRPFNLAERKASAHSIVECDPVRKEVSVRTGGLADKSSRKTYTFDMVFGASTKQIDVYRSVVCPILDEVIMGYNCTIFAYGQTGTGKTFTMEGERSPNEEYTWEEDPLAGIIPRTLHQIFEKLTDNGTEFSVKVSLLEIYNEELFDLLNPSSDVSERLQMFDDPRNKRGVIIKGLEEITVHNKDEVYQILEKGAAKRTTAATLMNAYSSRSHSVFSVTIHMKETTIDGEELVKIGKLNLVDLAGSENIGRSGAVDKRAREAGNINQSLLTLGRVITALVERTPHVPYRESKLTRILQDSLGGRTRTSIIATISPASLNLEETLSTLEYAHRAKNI
Description: C-1b Determination of the Inhibition of the Kinesin Spindle Protein KSP/Eg5 by Selected Examples
The motor domain of the human kinesin spindle protein KSP/Eg5 (from tebu-bio/Cytoskeleton Inc, No. 027EG01-XL) is incubated at a concentration of 10 nM with 50 μg/ml taxol- (from Sigma No. T7191-5MG) stabilized microtubuli (bovine or porcine, from tebu-bio/Cytoskeleton Inc) for 5 min at RT in 15 mM PIPES, pH 6.8 (5 mM MgCl2 and 10 mM DTT, from Sigma). The freshly prepared mixture is aliquoted into a 384-well MTP. The inhibitors to be examined at concentrations of 1.0×10^−6 M to 1.0×10^−13 and ATP (final concentration 500 μM, from Sigma) are then added. Incubation is at RT for 2 h. ATPase activity is detected by detecting the inorganic phosphate formed using malachite green (from Biomol). […] The individual data of the dose-activity curve are eight-fold determinations. The IC50 values are means of three independent experiments.

SMILES: CC(C)(C)[C@H](c1cc(-c2cc(F)ccc2F)cn1Cc1ccccc1)N(CCCN)C(=O)CSCCC(NC(=O)CCOCCOCCOCCOCCNC(=O)CCN1C(=O)CC(SC[C@H](N)C(=O)O)C1=O)C(=O)O.O=C(O)C(F)(F)F (mixture of isomers) [Example 138, N-[19-(3(R/S)-{[(2R)-2-amino-2-carboxyethyl]sulphanyl}-2,5-dioxopyrrolidin-1-yl)-17-oxo-4,7,10,13-tetraoxa-16-azanonadecan-1-oyl]-R/S-{2-[(3-aminopropyl){(1R)-1-[1-benzyl-4-(2,5-difluorophenyl)-1H-pyrrol-2-yl]-2,2-dimethylpropyl}amino]-2-oxoethyl}homocysteine/trifluoroacetic acid (1:1)]
IC50 (NCI-H292): ≥ 500 nM
Papp B→A at 2 h [1]: 0.17 ×10⁻⁶ cm/s
efflux ratio at 2 h [1]: 1.6

SMILES: CC(C)(C)[C@H](c1nc(-c2cc(F)ccc2F)cn1Cc1ccccc1)N(CC[C@H](N)C(=O)O)C(=O)CO.O=C(O)C(F)(F)F [Example 76, (2S)-2-Amino-4-[{(1R)-1-[1-benzyl-4-(2,5-difluorophenyl)-1H-imidazol-2-yl]-2,2-dimethylpropyl}(glycoloyl)amino]butanoic acid/trifluoroacetic acid (1:1)]
IC50 [2]: 2.33 nM
Papp B→A at 2 h [1]: 5.5 ×10⁻⁶ cm/s
efflux ratio at 2 h [1]: 27

SMILES: CC(C)(C)[C@H](c1nc(-c2cc(F)ccc2F)cn1Cc1ccccc1)N(CC[C@H](N)CN)C(=O)CO.O=C(O)C(F)(F)F [Example 78, Trifluoroacetic acid/N-{(1R)-1-[1-benzyl-4-(2,5-difluorophenyl)-1H-imidazol-2-yl]-2,2-dimethylpropyl}-N-[(3S)-3,4-diaminobutyl]-2-hydroxyacetamide (1:1)]
IC50 [2]: 4.95 nM
Papp B→A at 2 h [1]: 14 ×10⁻⁶ cm/s
efflux ratio at 2 h [1]: 44

SMILES: CC(C)(C)[C@H](c1nc(-c2cc(F)ccc2F)cn1Cc1ccccc1)N(CC[C@H](N)C(=O)NCCN)C(=O)CO.O=C(O)C(F)(F)F.O=C(O)C(F)(F)F [Example 80, Trifluoroacetic acid/(2S)-2-amino-N-(2-aminoethyl)-4-[{(1R)-1-[1-benzyl-4-(2,5-difluorophenyl)-1H-imidazol-2-yl]-2,2-dimethylpropyl}(glycoloyl)amino]butanamide (2:1)]
IC50 [2]: 3.72 nM
Papp B→A at 2 h [1]: 20 ×10⁻⁶ cm/s
efflux ratio at 2 h [1]: 22

SMILES: CC(C)(C)[C@H](c1nc(-c2cc(F)ccc2F)cn1Cc1ccccc1)N(CC[C@H](N)C(=O)NCCNC(=O)CSC[C@H](N)C(=O)O)C(=O)CO.O=C(O)C(F)(F)F [Example 97, S-(2-{[2-({(2S)-2-Amino-4-[{(1R)-1-[1-benzyl-4-(2,5-difluorophenyl)-1H-imidazol-2-yl]-2,2-dimethylpropyl}(glycoloyl)amino]butanoyl}amino)ethyl]amino}-2-oxoethyl)-L-cysteine/trifluoroacetic acid (1:1)]
IC50 [2]: 2.13 nM
Papp B→A at 2 h [1]: 0.56 ×10⁻⁶ cm/s
efflux ratio at 2 h [1]: 2

IC50 [2]: 1.8 nM
SMILES: CC(C)(C)[C@H](c1cc(-c2cc(F)ccc2F)cn1Cc1ccccc1)N(CCCN)C(=O)CO [Example 98, N-(3-aminopropyl)-N-{(1R)-1-[1-benzyl-4-(2,5-difluorophenyl)-1H-pyrrol-2-yl]-2,2-dimethylpropyl}-2-hydroxyacetamide]
IC50 (NCI-H292): 1.65 nM

SMILES: CNC(=O)[C@@H](N)CCN(C(=O)CO)[C@@H](c1cc(-c2cc(F)ccc2F)cn1Cc1ccccc1)C(C)(C)C.O=C(O)C(F)(F)F [Example 99, Trifluoroacetic acid/(2S)-2-amino-4-[{(1R)-1-[1-benzyl-4-(2,5-difluorophenyl)-1H-pyrrol-2-yl]-2,2-dimethylpropyl}(glycoloyl)amino]-N-methylbutanamide (1:1)]
IC50 (NCI-H292): 0.851 nM
Papp B→A at 2 h [1]: 30.3 ×10⁻⁶ cm/s
efflux ratio at 2 h [1]: 8.7

IC50 [2]: 4.7 nM
SMILES: CC(C)(C)[C@@H](c1cc(-c2cc(F)ccc2F)cn1Cc1ccccc1)N(CCCN)C(=O)CO [Example 102, N-(3-Aminopropyl)-N-{(1S)-1-[1-benzyl-4-(2,5-difluorophenyl)-1H-pyrrol-2-yl]-2,2-dimethylpropyl}-2-hydroxyacetamide]
IC50 (NCI-H292): 32.9 nM

SMILES: CC(C)(C)[C@H](c1cc(-c2cc(F)ccc2F)cn1Cc1ccccc1)N(CC[C@H](N)C(=O)NCCNC(=O)CN1C(=O)CC(SC[C@H](N)C(=O)O)C1=O)C(=O)CO.O=C(O)C(F)(F)F (stereo partly drawn) [Example 135, S-[1-(2-{[2-({(2S)-2-Amino-4-[{(1R)-1-[1-benzyl-4-(2,5-difluorophenyl)-1H-pyrrol-2-yl]-2,2-dimethylpropyl}(glycoloyl)amino]butanoyl}amino)ethyl]amino}-2-oxoethyl)-2,5-dioxopyrrolidin-3-yl]-L-cysteine/trifluoroacetic acid (1:1)]
IC50 (NCI-H292): ≥ 500 nM
Papp B→A at 2 h [1]: 0.78 ×10⁻⁶ cm/s
efflux ratio at 2 h [1]: 4

SMILES: CC(C)(C)[C@H](c1cc(-c2cc(F)ccc2F)cn1Cc1ccccc1)N(CC[C@H](N)C(=O)NCCNC(=O)CSC[C@H](N)C(=O)O)C(=O)CO.O=C(O)C(F)(F)F [Example 158, S-(2-{[2-({(2S)-2-Amino-4-[{(1R)-1-[1-benzyl-4-(2,5-difluorophenyl)-1H-pyrrol-2-yl]-2,2-dimethylpropyl}(glycoloyl)amino]butanoyl}amino)ethyl]amino}-2-oxoethyl)-L-cysteine/trifluoroacetic acid (1:1)]
IC50 (NCI-H292): 22.2 nM
Papp B→A at 2 h [1]: 0.56 ×10⁻⁶ cm/s
efflux ratio at 2 h [1]: 2.2

SMILES: CC(C)(C)[C@H](c1cc(-c2cc(F)ccc2F)cn1Cc1ccccc1)N(CC[C@H](N)C(=O)NCCNC(=O)CC[C@H](N)C(=O)O)C(=O)CO.O=C(O)C(F)(F)F [Example 161, N-[2-({(2S)-2-Amino-4-[{(1R)-1-[1-benzyl-4-(2,5-difluorophenyl)-1H-pyrrol-2-yl]-2,2-dimethylpropyl}(glycoloyl)amino]butanoyl}amino)ethyl]-L-glutamine/trifluoroacetic acid (1:1)]
IC50 (NCI-H292): 35.5 nM
Papp B→A at 2 h [1]: 0.16 ×10⁻⁶ cm/s

SMILES: CC(C)(C)[C@H](c1cc(-c2cc(F)ccc2F)cn1Cc1ccccc1)N(CC[C@H](N)C(=O)NCCC(=O)NCCCC[C@H](N)C(=O)O)C(=O)CO.O=C(O)C(F)(F)F [Example 162, N^6-(N-(2S)-2-Amino-4-[{(1R)-1-[1-benzyl-4-(2,5-difluorophenyl)-1H-pyrrol-2-yl]-2,2-dimethylpropyl (glycoloyl)amino]butanoyl}-beta-alanyl)-L-lysine/trifluoroacetic acid (1:1)]
IC50 (NCI-H292): 121 nM
Papp B→A at 2 h [1]: 0.2 ×10⁻⁶ cm/s

IC50 [2]: 7.9 nM
SMILES: CC(=O)N(CCCN)[C@@H](c1nn(-c2cc(F)ccc2F)cc1Cc1ccccc1)C(C)(C)C [Example 181, N-(3-Aminopropyl)-N-{(1R)-1-[4-benzyl-1-(2,5-difluorophenyl)-1H-pyrazol-3-yl]-2,2-dimethylpropyl}acetamide]
IC50 (NCI-H292): 7.72 nM

IC50 [2]: 10.4 nM
SMILES: COCC(=O)N(CCCN)[C@@H](c1nn(-c2cc(F)ccc2F)cc1Cc1ccccc1)C(C)(C)C [Example 182, N-(3-aminopropyl)-N-{(1R)-1-[4-benzyl-1-(2,5-difluorophenyl)-1H-pyrazol-3-yl]-2,2-dimethylpropyl}-2-methoxyacetamide]
IC50 (NCI-H292): 1.2 nM

IC50 [2]: 6.21 nM
SMILES: CC(C)(C)[C@H](c1nn(-c2cc(F)ccc2F)cc1Cc1ccccc1)N(CCCN)C(=O)c1ccc(F)cc1F [Example 183, N-(3-aminopropyl)-N-{(1R)-1-[4-benzyl-1-(2,5-difluorophenyl)-1H-pyrazol-3-yl]-2,2-dimethylpropyl}-2,4-difluorobenzamide]
IC50 (NCI-H292): 32.9 nM

IC50 [2]: 14.3 nM
SMILES: Cc1ccc(C(=O)N(CCCN)[C@@H](c2nn(-c3cc(F)ccc3F)cc2Cc2ccccc2)C(C)(C)C)cc1 [Example 184, N-(3-aminopropyl)-N-{(1R)-1-[4-benzyl-1-(2,5-difluorophenyl)-1H-pyrazol-3-yl]-2,2-dimethylpropyl}-4 methylbenzamide]
IC50 (NCI-H292): 27.8 nM

SMILES: CC(C)(C)[C@H](c1cc(-c2cc(F)ccc2F)cn1Cc1ccccc1)N(CC[C@H](N)C(=O)O)C(=O)CO.Cl [Example 197, (2S)-2-Amino-4-[{(1R)-1-[1-benzyl-4-(2,5-difluorophenyl)-1H-pyrrol-2-yl]-2,2-dimethylpropyl}(glycoloyl)amino]butanoic acid hydrochloride (1:1)]
IC50 (NCI-H292): 7.35 nM
Papp B→A at 2 h [1]: 9.3 ×10⁻⁶ cm/s
